Assay results from US20210382058A1, “PATIENT SELECTION FOR TREATMENT OF MYC POSITIVE CANCERS WITH INDENOISOQUINOLINES” (Purdue Research Foundation, priority 2020, published 2021).
Read-outs that look alike come from different tables or passages of the source.

Tests used:
[1] = system: MYC protein expression in MCF-7 breast cancer cells; assay: Western blotting of MYC protein level in MCF-7 cells; type: cell-based, human; settings: Homo sapiens, MCF7; western blotting, MCF-7 cells, 0.5, 1, 2, and 4 μM, 24 hours; read-out: MYC Inhibition
Experimental: MCF-7 cells were incubated with each compound at four concentrations (0.5, 1, 2, and 4 μM) for 24 hours, and the MYC protein levels were measured (FIG. 3A and FIGS. 12 A to 12 F).
Cells were incubated at 37° C. with 5% CO2.
The gels were cut into strips that contained the proteins of interest and transferred to nitrocellulose membrane (I323002, Invitrogen) using an iBlot 2 Dry Transfer Device (Invitrogen). Immunoblotting was carried out according to standard procedures using the ECL detection method. The membrane was hybridized with the following antibodies: monoclonal anti-MYC (1:1000 dilution; rabbit, Cell Signaling Technology), monoclonal anti-GAPDH (1:2000 dilution; rabbit, Cell Signaling Technology).

human topoisomerase I = target: T1, human topoisomerase I (Homo sapiens, UniProt P11387); settings: relative topoisomerase I inhibition levels, previously determined, six levels (0 - 5, +++++ = 5); cited from earlier work
T1 sequence (P11387 1-765): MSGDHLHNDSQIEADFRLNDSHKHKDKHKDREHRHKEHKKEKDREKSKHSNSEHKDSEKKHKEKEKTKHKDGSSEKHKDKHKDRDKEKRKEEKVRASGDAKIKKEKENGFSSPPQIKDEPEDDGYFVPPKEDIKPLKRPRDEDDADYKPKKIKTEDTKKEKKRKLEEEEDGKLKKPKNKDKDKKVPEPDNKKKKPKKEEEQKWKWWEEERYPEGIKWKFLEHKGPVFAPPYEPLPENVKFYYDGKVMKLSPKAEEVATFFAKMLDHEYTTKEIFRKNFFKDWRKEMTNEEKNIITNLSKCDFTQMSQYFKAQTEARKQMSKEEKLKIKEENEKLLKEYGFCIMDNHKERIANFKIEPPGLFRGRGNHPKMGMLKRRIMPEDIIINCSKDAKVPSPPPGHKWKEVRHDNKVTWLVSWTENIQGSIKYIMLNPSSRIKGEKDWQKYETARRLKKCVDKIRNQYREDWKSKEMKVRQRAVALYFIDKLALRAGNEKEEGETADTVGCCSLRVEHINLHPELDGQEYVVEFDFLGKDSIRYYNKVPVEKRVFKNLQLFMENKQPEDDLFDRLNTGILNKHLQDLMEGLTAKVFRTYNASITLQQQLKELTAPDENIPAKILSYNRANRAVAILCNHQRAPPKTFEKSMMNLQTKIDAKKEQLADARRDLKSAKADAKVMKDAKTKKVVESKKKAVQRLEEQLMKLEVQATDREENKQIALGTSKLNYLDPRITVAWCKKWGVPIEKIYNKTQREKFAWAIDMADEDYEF

NCI-60 cancer cell lines = assay: NCI-60 cancer cell line drug screen (GI50, MGM); type: cell-based, human; settings: Homo sapiens; for mean GI50 across NCI-60 panel (MGM): average of GI50 values across the entire panel of NCI-60 cancer cell lines
Experimental: Cancer cells were incubated with the test compounds at five concentrations ranging from 100 μM to 10 nM for 48 h. […] The approximate average of GI50 values across the entire panel of NCI-60 cancer cell lines for each compound was recorded as the MGM value.

[2] = A549, Non-Small Cell Lung Cancer, A549/ATCC, read-out: Antiproliferative Activities [GI50 (μM)]
[3] = CCRF-CEM, Leukemia, CCRF-CEM, read-out: Antiproliferative Activities [GI50 (μM)]
[4] = COLO 205, Colon Cancer, COLO 205, read-out: Antiproliferative Activities [GI50 (μM)]
[5] = HCC 2998, Colon Cancer, HCC-2998, read-out: Antiproliferative Activities [GI50 (μM)]
[6] = HCT-116, Colon Cancer, HCT-116, read-out: Antiproliferative Activities [GI50 (μM)]
[7] = HL-60, Leukemia, HL-60(TB), read-out: Antiproliferative Activities [GI50 (μM)]
[8] = HOP-62, Non-Small Cell Lung Cancer, HOP-62, read-out: Antiproliferative Activities [GI50 (μM)]
[9] = HOP-92, Non-Small Cell Lung Cancer, HOP-92, read-out: Antiproliferative Activities [GI50 (μM)]
[10] = K562, Leukemia, K-562, read-out: Antiproliferative Activities [GI50 (μM)]
[11] = Leukemia, SR, read-out: Antiproliferative Activities [GI50 (μM)]
[12] = MOLT-4, Leukemia, MOLT-4, read-out: Antiproliferative Activities [GI50 (μM)]
[13] = NCI-H23, Non-Small Cell Lung Cancer, NCI-H23, read-out: Antiproliferative Activities [GI50 (μM)]
[14] = NCI-H226, Non-Small Cell Lung Cancer, NCI-H226, read-out: Antiproliferative Activities [GI50 (μM)]
[15] = NCI-H322M, Non-Small Cell Lung Cancer, NCI-H322M, read-out: Antiproliferative Activities [GI50 (μM)]
[16] = NCI-H460, Non-Small Cell Lung Cancer, NCI-H460, read-out: Antiproliferative Activities [GI50 (μM)]
[17] = NCI-H522, Non-Small Cell Lung Cancer, NCI-H522, read-out: Antiproliferative Activities [GI50 (μM)]
[18] = RPMI-8226, Leukemia, RPMI-8226, read-out: Antiproliferative Activities [GI50 (μM)]
[19] = EKVX, Non-Small Cell Lung Cancer, EKVX, read-out: Antiproliferative Activities [GI50 (μM)]

| SMILES | minimal effective concentration [1] | Top1 Inhibiton (human topoisomerase I) | GI50 (NCI-60 cancer cell lines; [2]) | GI50 (NCI-60 cancer cell lines; [3]) | GI50 (NCI-60 cancer cell lines; [4]) | GI50 (NCI-60 cancer cell lines; [5]) | GI50 (NCI-60 cancer cell lines; [6]) | GI50 (NCI-60 cancer cell lines; [7]) | GI50 (NCI-60 cancer cell lines; [8]) | GI50 (NCI-60 cancer cell lines; [9]) | GI50 (NCI-60 cancer cell lines; [10]) | GI50 (NCI-60 cancer cell lines; [11]) | GI50 (NCI-60 cancer cell lines; [12]) | GI50 (NCI-60 cancer cell lines; [13]) | GI50 (NCI-60 cancer cell lines; [14]) | GI50 (NCI-60 cancer cell lines; [15]) | GI50 (NCI-60 cancer cell lines; [16]) | GI50 (NCI-60 cancer cell lines; [17]) | GI50 (NCI-60 cancer cell lines; [18]) | mean GI50 across NCI-60 panel (MGM) (NCI-60 cancer cell lines) | other results |
| --- | --- | --- | --- | --- | --- | --- | --- | --- | --- | --- | --- | --- | --- | --- | --- | --- | --- | --- | --- | --- | --- |
| COc1cc2c(=O)n(CCCN3CCOCC3)c3c(c2cc1OCCCN1CCCC1)C(=O)c1cc2c(cc1-3)OCO2 [Compound 55] | 4 µM | ++ (medium inhibition, ++, MYC expression inhibited at 2.0 μM, or no clear dose-dependent MYC inhibition) | 0.11 µM | < 0.01 µM | 0.31 µM | 3.32 µM | 0.16 µM | 0.3 µM | 0.19 µM | 1.66 µM | 0.19 µM | < 0.01 µM | < 0.01 µM | 0.71 µM | 2.12 µM | 1 µM | 0.03 µM | 0.04 µM | 0.25 µM | 340 nM |  |
| COc1cnc2c(c1)C(=O)c1c-2n(CCCN2CCNCC2)c(=O)c2cc(Cl)ccc12 [Compound 1] |  | + (weak inhibition, +, MYC expression inhibited at 4.0 μM) |  |  |  |  |  |  |  |  |  |  |  |  |  |  |  |  |  |  |  |
| COc1cc2c3c(n(CCCN)c(=O)c2cc1OC)-c1cc2c(cc1C3=O)OCO2 [Compound 45] | 2 µM | +++ (strong inhibition, +++, MYC expression inhibited at 0.5 to 1.0 μM) | 0.11 µM | < 0.01 µM | 0.3 µM | 0.1 µM | 0.12 µM | 0.22 µM | 0.06 µM | 1.65 µM | 0.09 µM | < 0.01 µM | < 0.01 µM | 0.13 µM | 1.39 µM |  | 0.02 µM | 0.07 µM | < 0.01 µM | 180 nM |  |
| COc1cc2c3c(n(CCCNCCN)c(=O)c2cc1OC)-c1cc2c(cc1C3=O)OCO2 [Compound 46] | 4 µM | +++ (strong inhibition, +++, MYC expression inhibited at 0.5 to 1.0 μM) | 0.74 µM | < 0.01 µM | 0.08 µM |  | 0.13 µM | 0.25 µM | 0.05 µM | 3.27 µM | 0.28 µM |  | < 0.01 µM | 0.05 µM | 0.65 µM | 0.53 µM | 0.43 µM | 0.4 µM | 0.48 µM |  | GI50 (NCI-60 cancer cell lines; [19]): 2.06 µM |
| CCNCCCn1c2c(c3ccc(F)cc3c1=O)C(=O)c1cc(OC)cnc1-2 [Compound 7] |  | ++ (medium inhibition, ++, MYC expression inhibited at 2.0 μM, or no clear dose-dependent MYC inhibition) |  |  |  |  |  |  |  |  |  |  |  |  |  |  |  |  |  |  |  |
| COc1cc2c3c(n(CCCNCCO)c(=O)c2cc1OC)-c1cc2c(cc1C3=O)OCO2 [Compound 44] | 0.5 to 1 µM |  |  |  |  |  |  |  |  |  |  |  |  |  |  |  |  |  |  |  | GI50 (NCI-60 cancer cell lines; A549, read-out: Antiproliferative Activities [GI50 (μM)]): 0.03 µM; GI50 (NCI-60 cancer cell lines; CCRF-CEM, read-out: Antiproliferative Activities [GI50 (μM)]): < 0.01 µM; GI50 (NCI-60 cancer cell lines; COLO 205, read-out: Antiproliferative Activities [GI50 (μM)]): 0.38 µM; GI50 (NCI-60 cancer cell lines; EKVX, read-out: Antiproliferative Activities [GI50 (μM)]): 0.26 µM; GI50 (NCI-60 cancer cell lines; HCT-116, read-out: Antiproliferative Activities [GI50 (μM)]): 0.07 µM; GI50 (NCI-60 cancer cell lines; HL-60, read-out: Antiproliferative Activities [GI50 (μM)]): < 0.01 µM; GI50 (NCI-60 cancer cell lines; HOP-62, read-out: Antiproliferative Activities [GI50 (μM)]): 0.01 µM; GI50 (NCI-60 cancer cell lines; HOP-92, read-out: Antiproliferative Activities [GI50 (μM)]): 0.83 µM; GI50 (NCI-60 cancer cell lines; K562, read-out: Antiproliferative Activities [GI50 (μM)]): 0.02 µM; GI50 (NCI-60 cancer cell lines; MOLT-4, read-out: Antiproliferative Activities [GI50 (μM)]): < 0.01 µM; GI50 (NCI-60 cancer cell lines; NCI-H23, read-out: Antiproliferative Activities [GI50 (μM)]): < 0.01 µM; GI50 (NCI-60 cancer cell lines; NCI-H226, read-out: Antiproliferative Activities [GI50 (μM)]): 0.21 µM; GI50 (NCI-60 cancer cell lines; NCI-H322M, read-out: Antiproliferative Activities [GI50 (μM)]): 0.05 µM; GI50 (NCI-60 cancer cell lines; NCI-H460, read-out: Antiproliferative Activities [GI50 (μM)]): < 0.01 µM; GI50 (NCI-60 cancer cell lines; NCI-H522, read-out: Antiproliferative Activities [GI50 (μM)]): < 0.01 µM; GI50 (NCI-60 cancer cell lines; RPMI-8226, read-out: Antiproliferative Activities [GI50 (μM)]): 0.01 µM; GI50 (NCI-60 cancer cell lines; read-out: Antiproliferative Activities [GI50 (μM)]): < 0.01 µM; IC50 (NCI-60 cancer cell lines; read-out: MGM): 60 nM |
| COc1cnc2c(c1)C(=O)c1c-2n(CCCN2CCN(C)CC2)c(=O)c2cc(Cl)ccc12 [Compound 4] |  | + (weak inhibition, +, MYC expression inhibited at 4.0 μM) |  |  |  |  |  |  |  |  |  |  |  |  |  |  |  |  |  |  |  |
| COc1cc2c3c(n(CCCNC4=NCCS4)c(=O)c2cc1OC)-c1cc2c(cc1C3=O)OCO2 [Compound 50] | 2 µM |  | < 0.01 µM | < 0.01 µM | < 0.01 µM | < 0.01 µM | < 0.01 µM | 0.29 µM | < 0.01 µM | < 0.01 µM | < 0.01 µM | < 0.01 µM | < 0.01 µM | 0.02 µM | 0.05 µM | 3.18 µM | < 0.01 µM | 0.02 µM | 0.02 µM | 40 nM | GI50 (NCI-60 cancer cell lines; [19]): 2.57 µM |
| COc1cnc2c(c1)C(=O)c1c-2n(CCCN2CCNCC2)c(=O)c2cc(F)ccc12 [Compound 8] |  | + (weak inhibition, +, MYC expression inhibited at 4.0 μM) |  |  |  |  |  |  |  |  |  |  |  |  |  |  |  |  |  |  |  |
